Reference: patent US20080200403A1, “9A-Carbamoyl and Thiocarbamoyl Azalides with Anti-Inflammatory Activity” (GLAXOSMITHKLINE, priority 2005, published 2008)

What was measured:
Type in all cases: cell-based
TNF-α = test: Inhibition of TNF-α production by stimulated human peripheral blood leukocytes in vitro; conditions: PBL
Procedure: (§1) Test substances used in in vitro experiments were dissolved in dimethyl sulfoxide (DMSO) (Kemika, Croatia) at concentrations of 50 mM and 10 mM, and were further diluted to final concentrations of 50 μM and 10 μM in 1 mL Dulbecco's modified Eagle medium (DMEM) supplemented with 1% heat inactivated fetal bovine serum (FBS), 1% L-glutamine, 50 U/ml penicillin, 50 μg/ml streptomycin and 2.5 μg/mL Fungizone (amphotericin B). Media and all media supplements were purchased from Gibco, Australia, except the FBS was purchased from Sigma, USA.
(§2) Peripheral blood leukocytes (PBL) were obtained from venous blood of healthy volunteers by sedimentation on 2% dextran T-500 (Amersham Biosciences, USA) and subsequent centrifugations of leukocyte rich plasma.
(§3) Peripheral blood leukocytes (PBL), isolated as described above, were seeded in a 48-well plate at a concentration of 3 to 5×10^6 cell per well in culture medium consisting of RPMI 1640 medium (Institute of Immunology, Croatia) supplemented with 10% heat-inactivated fetal calf serum (FCS, Biowhittaker, USA), 100 U/ml penicillin (Gibco, Australia), 100 μg/ml streptomycin (Gibco, Australia) and 2 mM L-glutamine (Gibco, Australia), and preincubated with the test compounds for 2 h at 37° C., in an atmosphere of 5% CO2, and 90% humidity. Then, stimuli (Sigma, USA) were added to a final concentration of 2 μg/mL lipopolysaccharide (LPS), 1 μg/mL phorbol 12-myristate 13-acetate (PMA) or 120 μg/mL zymosan. Samples were incubated overnight under conditions described above. At the end of incubation, the supernatants were transferred to eppendorf tubes and centrifuged for 10 min at 1500×g. Concentrations of human TNF-α, IL-1β, IL-6 and IL-8 were determined in cell supernatants by sandwich ELISA, using capture and detection antibodies (R&D Systems, Minneapolis, Minn.) according to the manufacturer's recommendations.
(§4) Inhibition (as percentage) was calculated using the following formula: % inhibition=(1−concentration of cytokines in sample/concentration of cytokines in positive control)×100. The positive control refers to stimulated samples, not treated with substances.

IL-1α = test: Inhibition of IL-1 production by stimulated human peripheral blood leukocytes in vitro; conditions: PBL
IL-6 = test: Inhibition of IL-6 production by stimulated human peripheral blood leukocytes in vitro; conditions: PBL
Procedure: as §1, §2, §3, §4

IL-8 = test: Inhibition of IL-8 production by stimulated human peripheral blood leukocytes in vitro; conditions: PBL
Procedure: as §1, §2, §3, §4

[1] = tested on: human peripheral blood mononuclear cells (PBMC); test: Human T-cell proliferation in vitro (3H-thymidine incorporation)
Procedure: Influence of substances at two different concentrations (50 μM and 10 μM) on cell proliferation of human peripheral blood mononuclear cells (PBMC) was assessed.
Heparinized peripheral blood was obtained from healthy donors, and PBMC were isolated by Histopaque 1077 (Sigma, USA) density centrifugation at 400×g for 30 minutes. 5×10^4 cells/well were cultured for 3 days in the RPMI medium as described above, in the presence (positive control) or absence (negative control) of stimulators [PHA (2.5 μg/mL) (Sigma, USA), or both PMA (10 ng/mL) (Sigma, USA) and ionomycin (500 ng/mL) (Calbiochem, USA)], and in the presence of the test compounds, at 37° C. in an atmosphere of 5% CO2 and 90% humidity. The cells were pulsed with 1 μCi of ^3H-thymidine (Amersham, USA) per well during the last 18 h of the culture, and were harvested on the 96-well filter (Packard Bioscience, USA) using a multiple cell harvester (Packard, USA). The incorporation of ^3H-thymidine in activated cells were measured using TopCount NXT (Packard, USA).
Inhibition (as percentage) was calculated using the following formula: % inhibition=(1−(^3H)thymidine incorporation expressed in counts per minute (cpm) in sample/(^3H)thymidine incorporation expressed in cpm in positive control)×100
where positive control refers to stimulated samples, not treated with substances.

[2] = zymosan stimulated, compound 10 μM
[3] = zymosan stimulated, compound 50 μM

SMILES | Percentage of inhibition of TNF-α production (TNF-α; LPS stimulated, compound 10 μM) | Percentage of inhibition of TNF-α production (TNF-α; LPS stimulated, compound 50 μM) | Percentage of inhibition of TNF-α production (TNF-α; PMA stimulated, compound 10 μM) | Percentage of inhibition of TNF-α production (TNF-α; PMA stimulated, compound 50 μM) | Percentage of inhibition of TNF-α production (TNF-α; [2]) | Percentage of inhibition of TNF-α production (TNF-α; [3]) | Percentage of inhibition of IL-1α production (IL-1α; LPS stimulated, compound 10 μM) | Percentage of inhibition of IL-1α production (IL-1α; LPS stimulated, compound 50 μM) | Percentage of inhibition of IL-1α production (IL-1α; PMA stimulated, compound 10 μM) | Percentage of inhibition of IL-1α production (IL-1α; PMA stimulated, compound 50 μM) | Percentage of inhibition of IL-1α production (IL-1α; [2]) | Percentage of inhibition of IL-1α production (IL-1α; [3]) | Percentage of inhibition of IL-6 production (IL-6; LPS stimulated, compound 10 μM) | Percentage of inhibition of IL-6 production (IL-6; LPS stimulated, compound 50 μM) | Percentage of inhibition of IL-6 production (IL-6; [2]) | Percentage of inhibition of IL-6 production (IL-6; [3]) | Percentage of inhibition of IL-8 production (IL-8; LPS stimulated, compound 10 μM) | Percentage of inhibition of IL-8 production (IL-8; LPS stimulated, compound 50 μM) | Percentage of inhibition of IL-8 production (IL-8; [2]) | Percentage of inhibition of IL-8 production (IL-8; [3]) | also measured
CC[C@H]1OC(=O)[C@H](C)[C@@H](O[C@H]2C[C@@](C)(OC)[C@@H](O)[C@H](C)O2)[C@H](C)[C@@H](O[C@@H]2O[C@H](C)C[C@H](N(C)C)[C@H]2O)[C@](C)(O)C[C@@H](C)CN(C(=S)Nc2ccc(Br)cc2)[C@H](C)[C@@H](O)[C@]1(C)O [Compound 7] | 0% | 100% | 95% | 100% | 69% | 100% | 71% | 89% | 0% | 79% | 96% | 83% | 54% | 100% | 73% | 100% | 39% | 100% | 61% | 99% | Percentage of inhibition of IL-6 production (IL-6; PMA stimulated, compound 10 μM): 65%; Percentage of inhibition of IL-6 production (IL-6; PMA stimulated, compound 50 μM): 90%; Percentage of inhibition of IL-8 production (IL-8; PMA stimulated, compound 10 μM): 40%; Percentage of inhibition of IL-8 production (IL-8; PMA stimulated, compound 50 μM): 100%
CC[C@H]1OC(=O)[C@H](C)C2O[C@@](C)(C[C@@H](C)CN(C(=O)NCc3ccccc3)[C@H](C)[C@@H](O)[C@]1(C)O)[C@H](O[C@@H]1O[C@H](C)C[C@H](N(C)C)[C@H]1O)[C@H]2C [Compound 11] | 0% | 51% | – | – | 13% | 88% | 48% | 38% | – | – | 85% | 77% | 0% | 66% | 72% | 100% | 0% | 52% | 23% | 75% | –
CC[C@H]1OC(=O)[C@H](C)[C@@H](O)[C@H](C)[C@@H](O[C@@H]2O[C@H](C)C[C@H](N(C)C)[C@H]2O)[C@](C)(O)C[C@@H](C)CN(C(=O)NCc2ccccc2)[C@H](C)[C@@H](O)[C@]1(C)O [Compound 8] | 58% | 30% | 56% | 54% | 16% | 0% | 42% | 40% | 26% | 0% | 16% | 17% | 60% | 82% | 20% | 18% | 48% | 0% | 0% | 0% | Percentage of inhibition of IL-8 production (IL-8; PMA stimulated, compound 10 μM): 37%; Percentage of inhibition of IL-8 production (IL-8; PMA stimulated, compound 50 μM): 0%; Percentage of inhibition of proliferation of stimulated PBMC ([1]; PHA stimulated, compound 10 μM): 0%; Percentage of inhibition of proliferation of stimulated PBMC ([1]; PHA stimulated, compound 50 μM): 0%; Percentage of inhibition of proliferation of stimulated PBMC ([1]; PMA + ionomycin stimulated, compound 10 μM): 0%; Percentage of inhibition of proliferation of stimulated PBMC ([1]; PMA + ionomycin stimulated, compound 50 μM): 0%
CC[C@H]1OC(=O)[C@H](C)[C@@H](O[C@H]2C[C@@](C)(OC)[C@@H](O)[C@H](C)O2)[C@H](C)[C@@H](O[C@@H]2O[C@H](C)C[C@H](N(C)C)[C@H]2O)[C@](C)(O)C[C@@H](C)CN(C(=O)Nc2ccc(Cl)c(C(F)(F)F)c2)[C@H](C)[C@@H](O)[C@]1(C)O [Compound 10] | 32% | 99% | 0% | 100% | 69% | 99% | 0% | 100% | 0% | 100% | 0% | 96% | 63% | 100% | 76% | 100% | 55% | 93% | 82% | 97% | Percentage of inhibition of IL-6 production (IL-6; PMA stimulated, compound 10 μM): 40%; Percentage of inhibition of IL-6 production (IL-6; PMA stimulated, compound 50 μM): 100%; Percentage of inhibition of IL-8 production (IL-8; PMA stimulated, compound 10 μM): 75%; Percentage of inhibition of IL-8 production (IL-8; PMA stimulated, compound 50 μM): 100%
